Laboratory results published in PMC12036197, “Green synthesis of PEGylated iron oxide nanoparticles of Eriobotrya japonica leaves extract in combination with B3, against Plasmodium falciparum 3D7 strain” (Tropical Medicine and Health, 2025).

Key:
[1] = test system: Plasmodium falciparum 3D7; assay: Growth inhibition of Plasmodium falciparum 3D7 in RPMI 1640 culture medium, single drugs; format: cell-based; details: for Growth inhibition rate: highest growth inhibition, RPMI 1640, 24 h
Experimental: Plates with a capacity of 4 ml or T25 culture flasks were employed for the cultivation of parasites. CCM culture medium and blood (to sustain a hematocrit of 10% within the culture medium for the proliferation and replication of the parasite) were supplemented into the dishes. […] Parasites were multiplied in a CCM medium containing 10% hematocrit with O + human erythrocyte and albumax (0.5%) serving as a growth factor. The culture plates were incubated at 37 °c in a candle jar, with the fresh medium being replenished every 48 h. A thin blood smear was prepared from the sediment collected from each plate, followed by the quantification of parasites on 10,000 red blood cells.
To investigate the effect of drugs on the culture medium, two stages were conducted. The effect of the drug was performed when 80% of the parasites were in the ring stage and the parasitemia was 6%. […] In the first step, the drugs were treated separately and their IC50 was measured. For plant extract, dilutions of 100, 200, 400 and 800 µg/mL (dry extract) of culture medium were done in 12 wells of a 96-well plate (in triplicate).
For polyethylene glycol, dilutions of 10, 100, 1000 and 10000 µg/mL of culture medium were done in 12 wells of a 96-well plate (in triplicate). For the nanoparticle produced by the PEGylated green synthesis method (PEG-HNPs) dilutions of 50, 100, 200, and 400 µg/mL culture medium were done in 12 wells of 96-well plates (in triplicate). In the second step, the effect of the IC50 combination of drugs with each other was investigated by the Fix ratio method on the culture medium. In this way, the percentage ratio of 0, 10, 30, 50, 70, 90, and 100 of one drug was combined with another drug and it was given an effect on the culture medium, and their synergistic and antagonistic effect was investigated by affecting the amount of parasitemia. Negative control consisted of 15 μL of freshly washed RBC plus 85 μL of CCM. […] Statistical analysis was done using GraphPad prism9 software and the results were analyzed with one-way ANOVA. […]

[2] = test system: red blood cells; assay: Hemolytic test; format: cell-based, human; details: 3 h incubation
Experimental: To conduct the hemolytic test on the hydroalcoholic extract of […], nicotinamide, and green-synthesized nanoparticles, 5 mL of fresh whole blood with heparin anticoagulant was obtained from a healthy volunteer. After centrifugation and washing with PBS, 1% blood suspension was prepared. In each well of three microplates, 100 µL of the prepared blood was added. Subsequently, 100 µL of the hydroalcoholic extract, nicotinamide, and green-synthesized nanoparticles with concentrations of 0.1, 1, 10, 50, 100 and 200 µg/mL, were added into the second to seventh wells of all three microplates, respectively. The first wells served as negative controls, containing an equal volume of PBS, while the eighth wells were positive controls, containing 100 µL of Triton X-100. After 3 h of incubation and centrifugation, the optical absorbance of the supernatant was measured at a wavelength of 540 nm. The percentage of drug-induced hemolysis was calculated using the following formula [28]: Percenthemolysis%=ODtest-ODnegativecontrol/ODpositivecontrol-ODnegativecontrol×100.
Investigating the hemolytic effect of Eriobotrya japonica hydroalcoholic extract (herbal extract), nicotinamide (NAM), and PEGylated green synthesized iron oxide nanoparticles (HNPs) on red blood cells at concentrations of 0.1, 1, 10, 50, 100 and 200 µg/mL were evaluated (Table 3). The optical absorbance of PBS was measured as negative control 0.01 and the optical absorbance of Triton X-100 was measured as positive control 1.00 (Fig. 5).

polyethylene glycol 600 [PEG]
Growth inhibition rate ([1]; concentration 10000 µg/ml): 71%

CCN(CC)CCCC(C)Nc1ccnc2cc(Cl)ccc12 (stereo not drawn) [CQ, chloroquine diphosphate]
inhibition at 8 µg/mL ([1]; Plasmodium falciparum, 3D7, 24 h, read-out: Growth inhibition rate): 95%

NC(=O)c1cccnc1 [NAM, nicotinamide]
Growth inhibition rate ([1]; concentration 3000 µg/ml): 94% | Percentage of drug hemolysis ([2]; drug concentration 0.1 µg/mL): 1% | Percentage of drug hemolysis ([2]; drug concentration 1 µg/mL): 2% | Percentage of drug hemolysis ([2]; drug concentration 10 µg/mL): 4% | Percentage of drug hemolysis ([2]; drug concentration 50 µg/mL): 6% | Percentage of drug hemolysis ([2]; drug concentration 100 µg/mL): 8% | Percentage of drug hemolysis ([2]; drug concentration 200 µg/mL): 9%
